Consider 2 compounds from patent US20080280996A1, “Use of Carophyllenes in the Manufacture of Medicaments and Treatment of Bodily Conditions of Inflammation and Inflammatory Pain” (priority 2004, published 2008).

Holding throughout (assay type): in vivo
One assay deals with PAF-induced oedema. The assay is described as follows: Platelet aggregation factor (PAF) oedema in mouse paw. The settings on record: mice, PAF 3 nmol/paw intraplantar; 50 mg/kg orally 1 h before; 30 to 120 min. The method, then: The test used below is described by Cunha et. al. in the publication Life Sci. 70:159-169, 2001. Male 25 g-35 g mice were slightly sedated with ether and were injected 50 μl saline containing platelet aggregation factor (PAF, 3 nmol/paw), intraplantar, in the right paw. The left paw received the same volume of saline and was taken as negative control. The swelling was measured with a plethysmometer (manufacturer: Ugo Basile, Italy) along various time intervals after the injection of the phlogistic agent. The difference between the volumes of the right and the left paw were quantified (in ml) and taken as an index of oedema. One hour before the test the animals were systemically treated (orally) with 50 mg/kg of alpha-humulene or trans-caryophyllene. Graph 5 below compares the inhibition of the volume of the oedema by administration of alpha-humulene (SA) and trans-caryophyllene (5B). Oedema volume measurement time intervals were 30, 45, 60, and 120 min. Each point represents the average of 5 animals, and the vertical bars the mean standard deviation.

The next assay concerns COX-2. Put plainly: Expression of enzyme COX-2 in carrageenin-injected rat paw (Western blot). As to conditions: 50 mg/kg orally 60 minutes before carrageenin 300 μg/paw, subcutaneous paw tissue. Here is the method:
The expression of enzymes COX-2 and iNOS were determined by Western blot according to the methodology described by Medeiros et. al. in the publication Circ Res. 28:1375-1382, 2004. Male 160-180 g rats were orally given 50 mg/kg of trans-caryophyllene. Animals treated with 0.9% (0.1 ml/10 g) saline were used as control. Another group of animals was treated with 0.5 mg/kg dexamethasone, subcutaneously, 4 hours before the test, and used as positive control. After 60 minutes, the animals received intraplantar injections of 100 μl of carrageenin (300 μg/paw) and were sacrificed after 180 minutes, and subcutaneous paw tissue was removed […] after the carrageenin injection. […] The protein concentration was determined by the Bradford method (BioRad Laboratories Inc. kit, Milan, Italy). […] The bands thus obtained were quantified using a chemoluminescence kit and densitometry analysis (relative units) in radiographic films. Graph 10 below (each result represents the average of 5 animals, and the vertical bars the mean standard error deviation) compares inhibition of expression of the COX2 enzymes, obtained by the administration of alpha-humulene and trans-caryophyllene, when evaluated in the subcutaneous tissue or the paw injected with carrageenin, compared to the expression of COX2 induced by carrageenin obtained by treatment with dexomethasone.

The subject of another assay is PGE2. Put plainly: Levels of PGE2 in carrageenin-injected rat paw exsudate (Elisa). The settings on record: 50 mg/kg orally 60 minutes before carrageenin 300 μg/paw, paw exsudate after 180 minutes. Here is the method:
The test used below is described by Pinheiro et. al. in the publication Inflamm. Res. 51: 603-610, 2002, with minor modifications. Male 160-180 g rats were orally given 50 mg/kg of trans-caryophyllene. Animals treated with 0.9% (0.1 ml/10 g) saline were used as control. Another group of animals was treated with 0.5 mg/kg dexamethasone, subcutaneously, 4 hours before the test, and used as positive control. After 60 minutes, the animals received intraplantar injections of 100 μl of carrageenin (300 μg/paw) and were sacrificed after 180 minutes. The exsudate of the paws was collected by dialysis with the help of two polyethylene canulas, and was utilized for the quantification of PGE2, with an Elisa kit, according to the manufacturer's instructions (R & D Systems®, USA). The tests were performed in duplicate, and repeated three times. The answers are expressed in pg/mg of tissue. Graph 9 below (each result represents the average of 5 animals, and the vertical bars the mean standard error deviation) compares inhibition of the PGE2 level growth induced by carrageenin in the paws of rats, by administration of alpha-humulene and trans-caryophyllene, compared to the effect obtained by treatment with dexomethasone.
(In general: The carrageenan paw model is a standard test of acute inflammation.)

The subject of assay [1] is arachidonic acid ear oedema. The assay is described as follows: Arachidonic acid oedema in mouse ear. As to conditions: mice, arachidonic acid 2 mg/ear; topical ointment 0.025 to 0.2% caryophyllene applied 60 minutes before. Here is the method:
The ear oedema in the test below was measured according to Calixto et. al. in the publication Prostaglandins, 5: 515-526, 1991, with minor modifications. Male 25 g-35 g mice, in a first group, were topically applied, in the inner surface of the ears, an ointment comprising a range from 0.025 to 0.2% alpha-humulene or trans-caryophyllene. In the positive control group, the animals were topically applied 0.05 mg of phenidone per ear. After 60 minutes, the animals received 20 μl of arachidonic acid (2 mg/ear), dissolved in acetone, in the inner surface of the right ear. The oedema was measured using a digital micrometer, and the responses were expressed as μm, the difference between the ear thickness before and after the application of arachidonic acid. The responses of the animals treated with caryophyllenes were compared to those observed in the control group animals, treated with base ointment. Graphs 6A and 6B below compare the inhibition of the volume of the oedema by topic administration of alpha-humulene (6A) and trans-caryophyllene (6B). Oedema volume measurement was performed after application of 0.025%, 0.05%, 0.1, and 0.2% caryophyllene content ointment, compared to the oedema volume caused by the application of phenidone and arachidonic acid (C). Each point represents the average of 5 animals, and the vertical bars the mean standard error deviation.

`C/C1=C\CC/C(C)=C/CC(C)(C)/C=C/C1` [alpha-humulene]: the PAF-induced oedema formation result in the assay with PAF-induced oedema is given as “markedly reduced PAF-induced oedema formation”. Moreover, the “expression of enzymes COX2 induced by carrageenin in the paws of rats” value in the assay on COX-2 is on record as “markedly inhibited the expression”. Also, the “growth of PGE2 levels induced by carrageenin in the paws of rats” value in the assay on PGE2 is given as “markedly inhibited the growth of PGE2 levels”. Moreover, in assay [1], the “arachidonic acid ear oedema formation” value is given as “markedly reduced oedema formation, in a dose-dependent manner”.
Turning to `C=C1CC/C=C(\C)CC[C@@H]2[C@@H]1CC2(C)C` [trans-caryophyllene], the PAF-induced oedema formation result in the assay with PAF-induced oedema is recorded as “markedly reduced PAF-induced oedema formation”. Moreover, in the assay with COX-2, the “expression of enzymes COX2 induced by carrageenin in the paws of rats” value is on record as “markedly inhibited the expression”. Moreover, the “growth of PGE2 levels induced by carrageenin in the paws of rats” value in the assay on PGE2 is “markedly inhibited the growth of PGE2 levels”. In addition, in assay [1], the “arachidonic acid ear oedema formation” value is “markedly reduced oedema formation, in a dose-dependent manner”.
